We go through 39 molecules from patent US8309558B2, “Compounds for the treatment of hepatitis C” (Bristol-Myers Squibb Company, priority 2008, dated 2012).

SMILES strings stand for the structures. Some results are limits rather than exact numbers.

For one assay, the system named is HCV replicon cells. Kind of assay: HCV replicon FRET / luciferase assay (96-well plates). In kind it is cell-based. The settings on record: Hepatitis C virus, Table 1b; HCV replicon; read-out: EC50. An outline of the steps: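 Replicon cells + titrated cpds, 37 °C CO2. Alamar blue for cytotoxicity, PBS rinse, then lysis reagent w/ 20 μM FRET peptide (EDANS/DABCYL), 150 mM NaCl; kinetic read ex340/em490, 20 cycles. Alt: Dual-Glo luciferase. EC50 = 50% drop in FRET/luciferase signal after background subtraction.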
Background: In antiviral work, replicon cells carry a viral genome segment that copies itself.

The target of assay [1] is T1, HCV NS5B RdRp genotype 1b (Hepatitis C virus genotype 1b, UniProt Q9WMX2).
T1 construct: The protein was expressed with an 18 amino acid C-terminal truncation to enhance the solubility; made in house; host or cells: E. coli BL21(DE3), pET21a vector
T1 sequence (Q9WMX2 2420-2992): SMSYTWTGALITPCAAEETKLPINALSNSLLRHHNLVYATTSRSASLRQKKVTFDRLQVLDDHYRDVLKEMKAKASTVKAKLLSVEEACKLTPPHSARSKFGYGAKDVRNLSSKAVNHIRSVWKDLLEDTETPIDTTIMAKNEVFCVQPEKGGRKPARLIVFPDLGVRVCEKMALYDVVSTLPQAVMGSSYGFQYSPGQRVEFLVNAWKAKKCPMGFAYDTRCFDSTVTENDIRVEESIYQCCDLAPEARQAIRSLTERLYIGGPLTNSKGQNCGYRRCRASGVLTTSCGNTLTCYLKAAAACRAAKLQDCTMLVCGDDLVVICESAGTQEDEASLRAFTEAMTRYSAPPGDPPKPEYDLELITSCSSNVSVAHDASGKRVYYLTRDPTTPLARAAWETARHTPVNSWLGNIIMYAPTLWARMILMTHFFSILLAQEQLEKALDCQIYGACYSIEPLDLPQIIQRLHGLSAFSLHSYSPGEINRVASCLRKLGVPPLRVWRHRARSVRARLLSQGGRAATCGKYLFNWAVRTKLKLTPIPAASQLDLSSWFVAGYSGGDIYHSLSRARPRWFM
Kind of assay: Standard HCV NS5B RdRp enzyme assay. In kind it is biochemical. The settings on record: Table 1b; HCV NS5B RdRp genotype 1b; read-out: IC50. An outline of the steps:
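C-terminally truncated (18 aa) genotype 1b NS5B from E. coli, 28 nM, with 6 nM polyA template, 180 nM biotinylated oligo-dT12 primer and 3H-UTP (0.29 μM total UTP). Hepes pH 7.5 buffer with 2% DMSO; 60 min at 30° C. EDTA stop, SPA read-out; IC50 from seven concentrations by four-parameter fit.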

For `CNC(=O)c1c(-c2ccc(F)cc2)oc2ccc(-c3cc(NC(=O)OC(C)(C)C)cc(C(=O)NCC(C)C)c3)cc12`, in the assay on HCV replicon cells, the EC50 was < 250 nM. In addition, the IC50 in assay [1] fell in the range of 250 to 1000 nM.
With `CNC(=O)c1c(-c2ccc(F)cc2)oc2ccc(-c3ccc(-c4ccccc4Cl)c(C(=O)NCC(C)C)c3)cc12`, the concentration for a half-maximal effect (EC50) in the assay on HCV replicon cells is < 250 nM. For the same molecule, in assay [1], the IC50 was < 250 nM.
As to `CNC(=O)c1c(-c2ccc(F)cc2)oc2ccc(-c3ccc(-c4ccccc4C(N)=O)c(C(=O)NCC(C)C)c3)cc12`, the EC50 with HCV replicon cells is < 250 nM. The half-maximal inhibitory concentration (IC50) in assay [1] is < 250 nM.
Turning to `CNC(=O)c1c(-c2ccc(F)cc2)oc2ccc(-c3ccc(-c4ccccc4NC(C)=O)c(C(=O)NCC(C)C)c3)cc12`, the half-maximal effective concentration (EC50) in the assay with HCV replicon cells is 1000 to 10000 nM. Moreover, in assay [1], the IC50 is 250 to 1000 nM.
For `CNC(=O)c1c(-c2ccc(F)cc2)oc2ccc(-c3ccc(-c4ccccc4COC)c(C(=O)NCC(C)C)c3)cc12`, in that order: < 250 nM and 250 to 1000 nM.
On to `CNC(=O)c1c(-c2ccc(F)cc2)oc2ccc(-c3ccc(-c4cccc(CC#N)c4)c(C(=O)NCC(C)C)c3)cc12`, for which the concentration giving a half-maximal response (EC50) in the assay on HCV replicon cells was < 250 nM. Moreover, the IC50 in assay [1] is < 250 nM.
On to `CCNC(=O)c1cccc(-c2ccc(-c3ccc4oc(-c5ccc(F)cc5)c(C(=O)NC)c4c3)cc2C(=O)NCC(C)C)c1`, for which, in the assay with HCV replicon cells, the EC50 is < 250 nM. In addition, the IC50 in assay [1] was < 250 nM.
As to `CNC(=O)c1c(-c2ccc(F)cc2)oc2ccc(-c3ccc(-c4cccc(-c5ccccc5)c4)c(C(=O)NCC(C)C)c3)cc12`, in the assay on HCV replicon cells, the concentration for a half-maximal effect (EC50) lay within 250 to 1000 nM. In assay [1], the IC50 was > 10000 nM.
Turning to `CNC(=O)c1c(-c2ccc(F)cc2)oc2ccc(-c3cccc(-c4nc(C(C)C)no4)c3)cc12`, in the assay on HCV replicon cells, the half-maximal effective concentration (EC50) fell in the range of 250 to 1000 nM. Also, the IC50 in assay [1] was > 1390 nM.
As to `CNC(=O)c1c(-c2ccc(F)cc2)oc2ccc(-c3cccc(-c4nc(-c5ccccc5)no4)c3)cc12`, the EC50 in the assay with HCV replicon cells was < 250 nM. For the same molecule, the half-inhibitory concentration (IC50) in assay [1] is > 10000 nM.
`CNC(=O)c1c(-c2ccc(F)cc2)oc2ccc(-c3cc(C(=O)NC4(c5nnc(-c6ccccc6Cl)[nH]5)CC4)ccc3C)cc12`: in the assay on HCV replicon cells, the concentration giving a half-maximal response (EC50) is < 250 nM. In addition, in assay [1], the IC50 is < 250 nM.
As for `CNC(=O)c1c(-c2ccc(F)cc2)oc2ccc(-c3cc(C(=O)NC4(c5nnc(-c6cccc(OC)c6)[nH]5)CC4)ccc3C)cc12`, the EC50 in the assay with HCV replicon cells was < 250 nM. Further, the IC50 in assay [1] is < 250 nM.
With `CNC(=O)c1c(-c2ccc(F)cc2)oc2ccc(-c3cc(C(=O)NC4(c5nnc(-c6cccc(Cl)c6)[nH]5)CC4)ccc3C)cc12`, the concentration giving a half-maximal response (EC50) with HCV replicon cells was < 250 nM. Besides, the IC50 in assay [1] was < 250 nM.
With `CNC(=O)c1c(-c2ccc(F)cc2)oc2ccc(-c3cc(C(=O)NC4(c5nnc(-c6ccc(Cl)cc6)[nH]5)CC4)ccc3C)cc12`, the 50% effective concentration (EC50) in the assay on HCV replicon cells is < 250 nM. The IC50 in assay [1] fell in the range of 250 to 1000 nM.
`CNC(=O)c1c(-c2ccc(F)cc2)oc2ccc(-c3cc(C(=O)NC4(c5nnc(C(N)=O)[nH]5)CC4)ccc3C)cc12`: the concentration for a half-maximal effect (EC50) in the assay with HCV replicon cells was 250 to 1000 nM. Also, the IC50 in assay [1] is < 250 nM.
Turning to `CNC(=O)c1c(-c2ccc(F)cc2)oc2ccc(-c3cc(C(=O)NC4(c5nnc(-c6ccc(OC)cc6)[nH]5)CC4)ccc3C)cc12`, the EC50 with HCV replicon cells is < 250 nM. Also, the IC50 in assay [1] is < 250 nM.
With `CNC(=O)c1c(-c2ccc(F)cc2)oc2ccc(-c3cc(C(=O)NC4(c5nnc(C(C)C)[nH]5)CC4)ccc3C)cc12`, the EC50 in the assay on HCV replicon cells is < 250 nM. Also, the IC50 in assay [1] is < 250 nM.
Consider `CNC(=O)c1c(-c2ccc(F)cc2)oc2ccc(-c3cc(C(=O)NC4(c5nnc(-c6ccccn6)[nH]5)CC4)ccc3C)cc12`, for which, in the assay with HCV replicon cells, the EC50 was < 250 nM. For the same molecule, the 50% inhibitory concentration (IC50) in assay [1] was < 250 nM.
`CNC(=O)c1c(-c2ccc(F)cc2)oc2ccc(-c3cc(C(=O)NC4(c5nnc(C(F)(F)F)[nH]5)CC4)ccc3C)cc12`: the EC50 with HCV replicon cells is < 250 nM. Besides, the IC50 in assay [1] is < 250 nM.
With `CNC(=O)c1c(-c2ccc(F)cc2)oc2ccc(-c3cc(C(=O)NC4(c5coc(C)n5)CC4)ccc3C)cc12`, the EC50 in the assay on HCV replicon cells was < 250 nM. The half-maximal inhibitory concentration (IC50) in assay [1] was < 250 nM.
Regarding `CNC(=O)c1c(-c2ccc(F)cc2)oc2ccc(-c3cc(C(=O)NC4(c5ccccn5)CC4)ccc3OCCN)cc12`, the EC50 in the assay on HCV replicon cells is < 250 nM. In assay [1], the half-maximal inhibitory concentration (IC50) was < 20 nM.
As for `CNC(=O)c1c(-c2ccc(F)cc2)oc2ccc(-c3cc(C(=O)NC4(c5ccccn5)CC4)c(OC(C)C)cc3C)cc12`, the half-maximal effective concentration (EC50) in the assay on HCV replicon cells is < 250 nM. For the same molecule, the IC50 in assay [1] was < 250 nM.
As to `CNC(=O)c1c(-c2ccc(F)cc2)oc2ccc(-c3ccc(-c4ccccc4C(N)=O)c(C(=O)NC4(c5ccccn5)CC4)c3)cc12`, the half-maximal effective concentration (EC50) in the assay with HCV replicon cells is < 250 nM. Besides, the half-maximal inhibitory concentration (IC50) in assay [1] is < 250 nM.
For the molecule `CNC(=O)c1c(-c2ccc(F)cc2)oc2ccc(-c3cc(C(=O)NC4(c5ccccn5)CC4)ccc3OCCO)cc12`, the concentration for a half-maximal effect (EC50) with HCV replicon cells was < 250 nM. Further, the IC50 in assay [1] was < 250 nM.
Consider `CNC(=O)c1c(-c2ccc(F)cc2)oc2ccc(-c3cc(C(=O)NC4(c5ccccn5)CC4)cc(O)c3C)cc12`, for which the concentration giving a half-maximal response (EC50) in the assay with HCV replicon cells was < 250 nM. Also, the IC50 in assay [1] is < 250 nM.
For `CNC(=O)c1c(-c2ccc(F)cc2)oc2ccc(-c3c(C)ccc(C(=O)NC4(c5ccccn5)CC4)c3F)cc12`, the EC50 in the assay with HCV replicon cells was < 250 nM. Besides, the IC50 in assay [1] is < 20 nM.
As to `CNC(=O)c1c(-c2ccc(F)cc2)oc2ccc(-c3cc(C(=O)NC(C)(C)C)c(OC)cc3C)c(F)c12`, in the assay with HCV replicon cells, the EC50 is < 250 nM. Also, the 50% inhibitory concentration (IC50) in assay [1] was < 250 nM.
In the case of `CCC(NC(=O)c1cc(-c2ccc3oc(-c4ccc(F)cc4)c(C(=O)NC)c3c2F)c(C)cc1OC)c1ncccn1` (stereo not drawn), the EC50 with HCV replicon cells was < 250 nM. Besides, in assay [1], the 50% inhibitory concentration (IC50) is < 250 nM.
As for `CNC(=O)c1c(-c2ccc(F)cc2)oc2ccc(-c3cc(C(=O)NC4(c5ncccn5)CC4)c(OC)cc3C)c(F)c12`, in the assay on HCV replicon cells, the EC50 is < 250 nM. In assay [1], the IC50 was < 250 nM.
Regarding `CNC(=O)c1c(-c2ccc(F)cc2)oc2ccc(-c3cc(C(=O)NC4(c5ncccn5)CC4)c(OC)cc3C)cc12`, the 50% effective concentration (EC50) in the assay on HCV replicon cells was < 250 nM. The half-maximal inhibitory concentration (IC50) in assay [1] was < 250 nM.
As to `CNC(=O)c1c(-c2ccc(F)cc2)oc2ccc(-c3cc(C(=O)NC4(c5ccn(C)n5)CC4)ccc3C)cc12`, the EC50 with HCV replicon cells is < 250 nM. The concentration for half-maximal inhibition (IC50) in assay [1] is < 20 nM.
On to `CNC(=O)c1c(-c2ccc(F)cc2)oc2ccc(-c3cc(C(=O)NC4(c5coc(C)n5)CC4)c(OC)cc3C)cc12`, for which, in the assay on HCV replicon cells, the 50% effective concentration (EC50) was < 250 nM. For the same molecule, in assay [1], the IC50 is < 250 nM.
Turning to `CNC(=O)c1c(-c2ccc(F)cc2)oc2ccc(-c3cc(C(=O)NC4(c5ccn(C)n5)CC4)c(OC)cc3C)cc12`, the EC50 in the assay on HCV replicon cells is < 250 nM. The 50% inhibitory concentration (IC50) in assay [1] is < 250 nM.
In the case of `CNC(=O)c1c(-c2ccc(F)cc2)oc2ccc(-c3cc(C(=O)NC4(c5cc(C)on5)CC4)c(OC)cc3C)cc12`, the EC50 in the assay on HCV replicon cells is < 250 nM. Besides, the IC50 in assay [1] is < 250 nM.
As for `CNC(=O)c1c(-c2ccc(F)cc2)oc2ccc(-c3cc(C(=O)NC4(c5ccccn5)CC4)c(-c4ccccc4Cl)cc3C)cc12`, the concentration for a half-maximal effect (EC50) in the assay on HCV replicon cells is < 250 nM. Moreover, the 50% inhibitory concentration (IC50) in assay [1] was < 250 nM.
For the molecule `CNC(=O)c1c(-c2ccc(F)cc2)oc2ccc(-c3cc(C(=O)O)c(C)cc3C)c(F)c12`, in the assay on HCV replicon cells, the EC50 is > 10000 nM. Moreover, the half-maximal inhibitory concentration (IC50) in assay [1] was 1000 to 10000 nM.
For the molecule `CNC(=O)c1c(-c2ccc(F)cc2)oc2ccc(-c3cc(C(=O)NC4(c5ccccn5)CC4)c(OC)cc3OCC(N)=O)cc12`, the EC50 with HCV replicon cells is < 250 nM. In addition, in assay [1], the IC50 was < 20 nM.
The matching figures for `CNC(=O)c1c(-c2ccc(F)cc2)oc2ccc(-c3cc(C(=O)NC4(c5ncccn5)CC4)c(C)cc3C)c(F)c12`: < 250 nM and 250 to 1000 nM.
With `CNC(=O)c1c(-c2ccc(F)cc2)oc2ccc(-c3cc(C(=O)NC4(c5ncccn5)CC4)c(C)cc3C)cc12`, in the assay with HCV replicon cells, the EC50 was < 250 nM. Further, the IC50 in assay [1] is < 250 nM.

As usually defined, the EC50 is the concentration at which the effect is half-maximal. As a reminder, the IC50 is the midpoint of a concentration-inhibition curve.
